Test results as given in publication PMC11945486, “TAS1R2/TAS1R3 Single-Nucleotide Polymorphisms Affect Sweet Taste Receptor Activation by Sweeteners: The SWEET Project” (Nutrients, 2025).

Target: T1, human TAS1R2-WT (subunit alone) (Homo sapiens, UniProt Q8TE23)
T1 construct: expressed in transfected cells; host or cells: HEK293T-Gα16gust44
T1 sequence (Q8TE23 20-839): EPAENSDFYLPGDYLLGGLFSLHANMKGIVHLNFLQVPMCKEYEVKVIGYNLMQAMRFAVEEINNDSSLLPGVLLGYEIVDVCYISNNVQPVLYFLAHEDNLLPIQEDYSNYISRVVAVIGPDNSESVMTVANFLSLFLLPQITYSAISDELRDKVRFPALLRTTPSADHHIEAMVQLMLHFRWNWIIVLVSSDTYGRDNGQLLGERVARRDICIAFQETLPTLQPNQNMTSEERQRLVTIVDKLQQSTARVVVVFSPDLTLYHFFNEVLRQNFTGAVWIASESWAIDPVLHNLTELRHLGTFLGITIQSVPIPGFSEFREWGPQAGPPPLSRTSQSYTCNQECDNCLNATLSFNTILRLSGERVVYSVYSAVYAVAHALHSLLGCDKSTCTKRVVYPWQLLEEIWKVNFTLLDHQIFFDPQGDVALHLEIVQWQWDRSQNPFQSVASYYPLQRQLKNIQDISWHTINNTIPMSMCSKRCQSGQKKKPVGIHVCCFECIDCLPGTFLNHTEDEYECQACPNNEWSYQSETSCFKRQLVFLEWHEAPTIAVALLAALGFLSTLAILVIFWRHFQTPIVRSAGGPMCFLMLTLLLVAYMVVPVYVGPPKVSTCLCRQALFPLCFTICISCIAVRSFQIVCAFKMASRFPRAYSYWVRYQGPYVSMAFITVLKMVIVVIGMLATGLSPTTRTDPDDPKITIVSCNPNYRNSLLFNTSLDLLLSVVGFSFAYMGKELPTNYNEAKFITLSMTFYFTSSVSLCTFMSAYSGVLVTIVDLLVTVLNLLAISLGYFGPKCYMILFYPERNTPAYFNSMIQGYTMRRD
Assay: Calcium mobilisation assay, TAS1R2-WT subunit alone
Assay type: cell-based
Source text: The coding sequences for TAS1R2 and TAS1R3 were commercially synthesised, and the human codon was optimised for expression in human cells. The coding sequences of human TAS1R2 and TAS1R3 were subcloned and inserted into the mammalian expression vectors pcDNA6/myc-HisA and pcDNA4/myc-HisA (Invitrogen; Thermo Fisher Scientific; Illkirch, France) between the EcoRI and NotI restriction sites, generating the plasmids pcDNA6-TAS1R2 and pcDNA4-TAS1R3, respectively. To increase protein expression in mammalian cells, an upstream start codon was used, which was a sequence called MAX, corresponding to the QBI SP163 element also described in pcDNA4-HisMax (Invitrogen; Thermo Fisher Scientific; Illkirch, France). To measure the expression level of the receptor by immunohistochemistry, we used the FLAG sequence ([…]) in the C-terminal position, which encodes the FLAG tag epitope. […]
The HEK293T cells were kindly provided by Jay P. Slack (Givaudan Flavors Corporation; Cincinnati, OH, USA). […] The fluorescence intensity was measured for 90 s (excitation 488 nm, emission 510 nm) in an automated fluorometric FlexStation®3 Multi-Mode microplate reader (Molecular Devices; San Jose, CA, USA). […] The Ca^2+ changes were expressed as fractional changes in fluorescent light intensity: ΔF/F = (F − F0)/F0, where F was the fluorescent light intensity at each point, and F0 was the value of emitted fluorescent light prior to stimulus application. To calculate dose–response relationships, the changes in fluorescence upon stimulus application were averaged, mock-subtracted and baseline-corrected. […] The half-maximal effective concentrations (EC50 values) and maximal signal amplitudes were calculated using SigmaPlot software (version 15.0) (Systat Software; San Jose, CA, USA).
For in vitro calcium mobilisation assay performed on hTAS1R2-SNPs, hTAS1R3-SNPs and mTAS1R3-I60T, 6 to 7 concentrations were tested for each sweet compound, plus buffer alone. All concentration–receptor combinations were measured in duplicate, and each experiment was repeated at least 4 times (8 wells/concentration). […]

- EC50: 90 ± 17 µM
- R1 = Variant EC50/WT EC50: 1.0
- Max ΔF/F0 (maximal signal amplitude): 1.06 ± 0.06
Compound: C=C(C)[C@@H]1CC=C(/C=N/O)CC1 [Perillartine, perillartine]
